Test results: paper PMC5218480 (PLoS ONE, 2017)

Test system: MV-4-11 cells
Experiment: Gene expression microarray analysis (Affymetrix PrimeView) and GSEA
Assay type: cell-based, human
Parameters: RFU PODN (11730768_x_at) / Fold change /veh PODN (11730768_x_at) / RFU LINC00158 (11744669_a_at) / Fold change /veh LINC00158 (11744669_a_at) / RFU DUSP10 (11751237_a_at) / Fold change /veh DUSP10 (11751237_a_at) / RFU ID3 (11757404_x_at) / Fold change /veh ID3 (11757404_x_at) / RFU PLEKHG5 (11737974_s_at) / Fold change /veh PLEKHG5 (11737974_s_at) / RFU LRRC4B (11730491_at) / Fold change /veh LRRC4B (11730491_at) / RFU GIMAP4 (11747438_a_at) / Fold change /veh GIMAP4 (11747438_a_at) / RFU KRT8 (11758183_x_at) / Fold change /veh KRT8 (11758183_x_at) / RFU CNN1 (11734310_a_at) / Fold change /veh CNN1 (11734310_a_at) / RFU VPS37D (11726825_at) / Fold change /veh VPS37D (11726825_at) / RFU C10orf10 (11716522_x_at) / Fold change /veh C10orf10 (11716522_x_at) / RFU KIR2DL2 /// KIR2DL4 /// KIR2DL5A /// KIR2DL5B /// KIR2DS1 /// KIR2DS2 /// KIR2DS3 /// KIR2DS4 /// KIR3DL3 /// KIR3DL3 /// KIR3DS1 (11738374_at) / Fold change /veh KIR2DL2 /// KIR2DL4 /// KIR2DL5A /// KIR2DL5B /// KIR2DS1 /// KIR2DS2 /// KIR2DS3 /// KIR2DS4 /// KIR3DL3 /// KIR3DL3 /// KIR3DS1 (11738374_at) / RFU C1QL1 (11718748_at) / Fold change /veh C1QL1 (11718748_at) / RFU TMPRSS4 (11747572_a_at) / Fold change /veh TMPRSS4 (11747572_a_at) / RFU HAMP (11756126_x_at) / Fold change /veh HAMP (11756126_x_at) / RFU RNFT2 (11725882_a_at) / Fold change /veh RNFT2 (11725882_a_at) / RFU NR4A2 (11747474_a_at) / Fold change /veh NR4A2 (11747474_a_at) / RFU ABCC12 (11746883_a_at) / Fold change /veh ABCC12 (11746883_a_at) / RFU TMEM136 (11760407_x_at) / Fold change /veh TMEM136 (11760407_x_at) / RFU CLDN22 /// WWC2 (11732394_at) / Fold change /veh CLDN22 /// WWC2 (11732394_at) / RFU HLA-DPB1 (11760878_x_at) / Fold change /veh HLA-DPB1 (11760878_x_at) / RFU SPINT1 (11716480_a_at) / Fold change /veh SPINT1 (11716480_a_at) / RFU GAP43 (11754022_s_at) / Fold change /veh GAP43 (11754022_s_at) / RFU A4GNT (11735810_at) / Fold change /veh A4GNT (11735810_at) / RFU PRB3 (11715151_x_at) / Fold change /veh PRB3 (11715151_x_at) / RFU TUBB4B (11761932_at) / Fold change /veh TUBB4B (11761932_at) / RFU CAPN14 (11732068_a_at) / Fold change /veh CAPN14 (11732068_a_at) / RFU TMCC2 (11721928_a_at) / Fold change /veh TMCC2 (11721928_a_at) / RFU IRGQ (11745062_a_at) / Fold change /veh IRGQ (11745062_a_at) / RFU FAM174B (11720279_a_at) / Fold change /veh FAM174B (11720279_a_at) / RFU TMPRSS4 (11748680_a_at) / Fold change /veh TMPRSS4 (11748680_a_at) / RFU FAM212B (11763350_a_at) / Fold change /veh FAM212B (11763350_a_at) / RFU PLEKHG5 (11743358_a_at) / Fold change /veh PLEKHG5 (11743358_a_at) / RFU ZSCAN30 (11745921_a_at) / Fold change /veh ZSCAN30 (11745921_a_at) / RFU CMKLR1 (11741424_a_at) / Fold change /veh CMKLR1 (11741424_a_at) / RFU LOC101060620 /// MAPK8IP1 (11723275_at) / Fold change /veh LOC101060620 /// MAPK8IP1 (11723275_at) / RFU SPTSSB (11747773_x_at) / Fold change /veh SPTSSB (11747773_x_at) / RFU PRSS12 (11739890_at) / Fold change /veh PRSS12 (11739890_at) / RFU BIN1 (11741810_x_at) / Fold change /veh BIN1 (11741810_x_at) / RFU WNT11 (11732464_a_at) / Fold change /veh WNT11 (11732464_a_at) / RFU C10orf10 (11716521_a_at) / Fold change /veh C10orf10 (11716521_a_at) / RFU C5orf56 (11738089_at) / Fold change /veh C5orf56 (11738089_at) / RFU CYB561 (11721691_x_at) / Fold change /veh CYB561 (11721691_x_at) / RFU ANKRD19P (11752326_a_at) / Fold change /veh ANKRD19P (11752326_a_at) / RFU OR2T12 /// OR2T33 /// OR2T8 (11738714_s_at) / Fold change /veh OR2T12 /// OR2T33 /// OR2T8 (11738714_s_at) / RFU VCAN (11748164_a_at) / Fold change /veh VCAN (11748164_a_at) / RFU JSRP1 (11732532_at) / Fold change /veh JSRP1 (11732532_at) / RFU KRTAP10-11 (11738290_x_at) / Fold change /veh KRTAP10-11 (11738290_x_at) / RFU MYO3A (11730013_a_at) / Fold change /veh MYO3A (11730013_a_at) / RFU EBF3 (11725865_a_at) / Fold change /veh EBF3 (11725865_a_at) / RFU CAMK2N1 (11719241_x_at) / Fold change /veh CAMK2N1 (11719241_x_at) / RFU C5orf56 (11738088_a_at) / Fold change /veh C5orf56 (11738088_a_at) / RFU OLFML3 (11715873_a_at) / Fold change /veh OLFML3 (11715873_a_at) / RFU LOC100653217 /// NTM (11731650_a_at) / Fold change /veh LOC100653217 /// NTM (11731650_a_at) / RFU MAPK11 (11762145_a_at) / Fold change /veh MAPK11 (11762145_a_at) / RFU FIZ1 (11724087_x_at) / Fold change /veh FIZ1 (11724087_x_at) / RFU OASL (11726364_x_at) / Fold change /veh OASL (11726364_x_at) / RFU SOX15 (11748057_x_at) / Fold change /veh SOX15 (11748057_x_at) / RFU CD79A (11719716_a_at) / Fold change /veh CD79A (11719716_a_at) / RFU HIST1H1D (11736915_at) / Fold change /veh HIST1H1D (11736915_at) / RFU CASKIN2 (11723855_a_at) / Fold change /veh CASKIN2 (11723855_a_at) / RFU LOC730098 (11760151_x_at) / Fold change /veh LOC730098 (11760151_x_at) / RFU OR4N2 (11742367_at) / Fold change /veh OR4N2 (11742367_at) / RFU PRRT2 (11749266_a_at) / Fold change /veh PRRT2 (11749266_a_at) / RFU SNX32 (11753110_a_at) / Fold change /veh SNX32 (11753110_a_at) / RFU CDHR5 (11726645_a_at) / Fold change /veh CDHR5 (11726645_a_at) / RFU RCAN1 (11760418_a_at) / Fold change /veh RCAN1 (11760418_a_at) / RFU FAM167A (11723789_a_at) / Fold change /veh FAM167A (11723789_a_at) / RFU FAM26E (11764081_at) / Fold change /veh FAM26E (11764081_at) / RFU ISYNA1 (11749810_s_at) / Fold change /veh ISYNA1 (11749810_s_at) / RFU ACY1 (11761880_at) / Fold change /veh ACY1 (11761880_at) / RFU 11764098_at / Fold change /veh 11764098_at / RFU SAMD14 (11745864_x_at) / Fold change /veh SAMD14 (11745864_x_at) / RFU NPB (11741838_a_at) / Fold change /veh NPB (11741838_a_at) / RFU TMPRSS6 (11731388_a_at) / Fold change /veh TMPRSS6 (11731388_a_at) / RFU KRTAP10-2 (11738614_at) / Fold change /veh KRTAP10-2 (11738614_at) / RFU ARHGAP8 /// PRR5-ARHGAP8 (11727945_x_at) / Fold change /veh ARHGAP8 /// PRR5-ARHGAP8 (11727945_x_at) / RFU KRTAP5-7 /// NADSYN1 (11734609_at) / Fold change /veh KRTAP5-7 /// NADSYN1 (11734609_at) / RFU RASL12 (11751679_a_at) / Fold change /veh RASL12 (11751679_a_at) / RFU CDKN2B (11736163_a_at) / Fold change /veh CDKN2B (11736163_a_at) / RFU PRF1 (11729649_at) / Fold change /veh PRF1 (11729649_at) / RFU, ZNF638 /// ZNF638-IT1 / Fold change vs veh, ZNF638 /// ZNF638-IT1 / RFU, PANK3 / Fold change vs veh, PANK3 / RFU, SH3YL1 / Fold change vs veh, SH3YL1 / RFU, ZEB2 / Fold change vs veh, ZEB2 / RFU, NRIP1 / Fold change vs veh, NRIP1 / RFU, PTTG1IP / Fold change vs veh, PTTG1IP / RFU, CAPN2 / Fold change vs veh, CAPN2 / RFU, MED14 / Fold change vs veh, MED14 / RFU, SNORA58 / Fold change vs veh, SNORA58 / RFU, C1orf63 / Fold change vs veh, C1orf63 / RFU, LRRFIP1 / Fold change vs veh, LRRFIP1 / RFU, NDUFAF7 / Fold change vs veh, NDUFAF7 / RFU, SLC12A2 / Fold change vs veh, SLC12A2 / RFU, IBTK / Fold change vs veh, IBTK / RFU, ESF1 / Fold change vs veh, ESF1 / Fold change vs veh, TMEM50B / RFU, TAOK1 / Fold change vs veh, TAOK1 / RFU, ACBD3 / Fold change vs veh, ACBD3 / RFU, TMA16 / Fold change vs veh, TMA16 / RFU, RWDD3 / Fold change vs veh, RWDD3 / RFU, BCAT1 / Fold change vs veh, BCAT1 / RFU, EDEM3 / Fold change vs veh, EDEM3 / RFU, TMEM33 / Fold change vs veh, TMEM33 / RFU, WDR75 / Fold change vs veh, WDR75 / RFU, AHCTF1 / Fold change vs veh, AHCTF1 / RFU, TFRC / Fold change vs veh, TFRC / RFU, ZDHHC17 / Fold change vs veh, ZDHHC17 / RFU, NOM1 / Fold change vs veh, NOM1 / RFU, ARL8B / Fold change vs veh, ARL8B / RFU, ZBTB11 / Fold change vs veh, ZBTB11 / RFU, TAMM41 / Fold change vs veh, TAMM41 / RFU, KIAA1704 /// LOC100996395 / Fold change vs veh, KIAA1704 /// LOC100996395 / RFU, ING1 / Fold change vs veh, ING1 / RFU, TRMT61B / Fold change vs veh, TRMT61B / RFU, FUBP3 / Fold change vs veh, FUBP3 / RFU, TP53 / Fold change vs veh, TP53 / RFU, TNKS2 / Fold change vs veh, TNKS2 / RFU, ZFP14 / Fold change vs veh, ZFP14 / RFU, ACTR2 / Fold change vs veh, ACTR2 / RFU, PPP3R1 / Fold change vs veh, PPP3R1 / RFU, PIK3R1 / Fold change vs veh, PIK3R1 / RFU, HNRNPA1 / Fold change vs veh, HNRNPA1 / RFU, RNF170 / Fold change vs veh, RNF170 / RFU, ZNF28 / Fold change vs veh, ZNF28 / RFU, RNGTT / Fold change vs veh, RNGTT / RFU, OGT / Fold change vs veh, OGT / RFU, BRD1 / Fold change vs veh, BRD1 / RFU, MARS / Fold change vs veh, MARS / RFU, ZNF655 / Fold change vs veh, ZNF655 / RFU, FAHD1 / Fold change vs veh, FAHD1 / RFU, BDP1 / Fold change vs veh, BDP1 / RFU, LRRCC1 / Fold change vs veh, LRRCC1 / RFU, ARID1A / Fold change vs veh, ARID1A / RFU, ZNF146 / Fold change vs veh, ZNF146 / RFU, ZNF330 / Fold change vs veh, ZNF330 / RFU, GPN3 / Fold change vs veh, GPN3 / RFU, C9orf123 / Fold change vs veh, C9orf123 / RFU, N4BP2L2 / Fold change vs veh, N4BP2L2 / RFU, ARFIP1 / Fold change vs veh, ARFIP1 / RFU, FAM179B / Fold change vs veh, FAM179B / RFU, BCL10 / Fold change vs veh, BCL10 / RFU, UHRF1BP1L / Fold change vs veh, UHRF1BP1L / RFU, BET1 / Fold change vs veh, BET1 / RFU, CNOT2 / Fold change vs veh, CNOT2 / RFU, ZNF268 / Fold change vs veh, ZNF268 / Fold change vs veh, ZNF507 / RFU, DGCR2 / Fold change vs veh, DGCR2 / RFU, WDSUB1 / Fold change vs veh, WDSUB1 / Fold change vs veh, HSP90B1 /// MIR3652 / RFU, ADSS / Fold change vs veh, ADSS / RFU, GK / Fold change vs veh, GK / RFU, ZNF148 / Fold change vs veh, ZNF148 / RFU, TAF9 / Fold change vs veh, TAF9 / RFU, SLC1A5 / Fold change vs veh, SLC1A5 / RFU, SLMO2 / Fold change vs veh, SLMO2 / RFU, ABCC4 / Fold change vs veh, ABCC4 / RFU, LOC101060439 /// RAP1B / Fold change vs veh, LOC101060439 /// RAP1B / RFU, RFX7 / Fold change vs veh, RFX7 / RFU, GTPBP10 / Fold change vs veh, GTPBP10 / RFU, CNEP1R1 / Fold change vs veh, CNEP1R1 / RFU, BIVM-ERCC5 /// ERCC5 / Fold change vs veh, BIVM-ERCC5 /// ERCC5 / RFU, ILF3 / Fold change vs veh, ILF3 / RFU 11762660_at / Fold change /veh 11762660_at / RFU VCAN (11757783_s_at) / Fold change /veh VCAN (11757783_s_at) / RFU DDX43 (11728927_at) / Fold change /veh DDX43 (11728927_at) / RFU KRT8 (11758188_x_at) / Fold change /veh KRT8 (11758188_x_at) / RFU NKD1 (11759106_at) / Fold change /veh NKD1 (11759106_at) / RFU SRD5A1 (11742802_a_at) / Fold change /veh SRD5A1 (11742802_a_at) / RFU TPSAB1 /// TPSB2 (11721975_s_at) / Fold change /veh TPSAB1 /// TPSB2 (11721975_s_at) / RFU GSTM3 (11746129_a_at) / Fold change /veh GSTM3 (11746129_a_at) / RFU IL23R (11737362_x_at) / Fold change /veh IL23R (11737362_x_at) / RFU TMEM51 (11727254_a_at) / Fold change /veh TMEM51 (11727254_a_at) / RFU PIWIL2 (11732686_x_at) / Fold change /veh PIWIL2 (11732686_x_at) / RFU ORM1 (11744905_x_at) / Fold change /veh ORM1 (11744905_x_at) / RFU CCDC152 (11743942_at) / Fold change /veh CCDC152 (11743942_at) / RFU ECM1 (11717891_a_at) / Fold change /veh ECM1 (11717891_a_at) / RFU IL23R (11748794_a_at) / Fold change /veh IL23R (11748794_a_at) / RFU TNFAIP8L3 (11732012_x_at) / Fold change /veh TNFAIP8L3 (11732012_x_at) / RFU MBOAT4 (11741988_at) / Fold change /veh MBOAT4 (11741988_at) / RFU 11764193_at / Fold change /veh 11764193_at / RFU TMEM53 (11763286_at) / Fold change /veh TMEM53 (11763286_at) / RFU MAGEB2 (11727129_at) / Fold change /veh MAGEB2 (11727129_at) / RFU TMEM200A (11744735_a_at) / Fold change /veh TMEM200A (11744735_a_at) / RFU CCDC152 (11751479_a_at) / Fold change /veh CCDC152 (11751479_a_at) / RFU FAM211A (11726209_a_at) / Fold change /veh FAM211A (11726209_a_at) / RFU RGS16 (11746705_a_at) / Fold change /veh RGS16 (11746705_a_at) / RFU VCAN (11755009_s_at) / Fold change /veh VCAN (11755009_s_at) / RFU RHOB (11743442_s_at) / Fold change /veh RHOB (11743442_s_at) / RFU RGS16 (11720943_a_at) / Fold change /veh RGS16 (11720943_a_at) / RFU RGS16 (11720944_at) / Fold change /veh RGS16 (11720944_at) / RFU, VPS4B / Fold change vs veh, VPS4B / RFU, CREB1 / Fold change vs veh, CREB1 / RFU, DNAJC13 / Fold change vs veh, DNAJC13 / RFU, GNAQ / Fold change vs veh, GNAQ / RFU, CDK5R1 / Fold change vs veh, CDK5R1 / RFU, ZRANB3 / Fold change vs veh, ZRANB3 / RFU, CUL4A / Fold change vs veh, CUL4A / RFU, CCNY / Fold change vs veh, CCNY / RFU, UFL1 / Fold change vs veh, UFL1 / RFU, COG3 / Fold change vs veh, COG3 / RFU, DIAPH2 / Fold change vs veh, DIAPH2 / RFU, SKA2 / Fold change vs veh, SKA2 / RFU, AFF3 / Fold change vs veh, AFF3 / RFU, LMF1 / Fold change vs veh, LMF1 / RFU, IPO11 / Fold change vs veh, IPO11 / RFU, DFFB / Fold change vs veh, DFFB / RFU, FOXP1 / Fold change vs veh, FOXP1 / RFU, CARD8 / Fold change vs veh, CARD8 / RFU, STRN3 / Fold change vs veh, STRN3 / RFU, ADK / Fold change vs veh, ADK / RFU, RASSF2 / Fold change vs veh, RASSF2 / RFU, WIPF1 / Fold change vs veh, WIPF1 / RFU, LARP1B / Fold change vs veh, LARP1B / RFU, RASA1 / Fold change vs veh, RASA1 / RFU, RB1 / Fold change vs veh, RB1 / RFU, PPFIA1 / Fold change vs veh, PPFIA1 / RFU, MAT2A / Fold change vs veh, MAT2A / RFU, CCT5 / Fold change vs veh, CCT5 / RFU, WDR92 / Fold change vs veh, WDR92 / RFU, CUX1 / Fold change vs veh, CUX1 / RFU, TTC7A / Fold change vs veh, TTC7A / RFU, TMEM135 / Fold change vs veh, TMEM135 / RFU, DEPTOR / Fold change vs veh, DEPTOR / RFU, CPM / Fold change vs veh, CPM / RFU, DNAJB6 / Fold change vs veh, DNAJB6 / RFU, CACNA2D3 / Fold change vs veh, CACNA2D3 / RFU, DTX4 / Fold change vs veh, DTX4 / RFU, TFCP2 / Fold change vs veh, TFCP2 / RFU, GMCL1 /// GMCL1P1 / Fold change vs veh, GMCL1 /// GMCL1P1 / RFU, AEBP2 / Fold change vs veh, AEBP2 / RFU, SNHG1 /// SNORD22 /// SNORD25 /// SNORD26 /// SNORD27 /// SNORD28 /// SNORD29 /// SNORD31 / Fold change vs veh, SNHG1 /// SNORD22 /// SNORD25 /// SNORD26 /// SNORD27 /// SNORD28 /// SNORD29 /// SNORD31 / Fold change (Aza/veh), C12orf56 (ProbeSet 11735607_a_at) / Fold change (ACY-1035/veh), C12orf56 (ProbeSet 11735607_a_at) / Fold change (Aza/veh), FGFR1OP (ProbeSet 11751329_s_at) / Fold change (ACY-1035/veh), FGFR1OP (ProbeSet 11751329_s_at) / Fold change (Aza/veh), VPS36 (ProbeSet 11739960_a_at) / Fold change (ACY-1035/veh), VPS36 (ProbeSet 11739960_a_at) / RFU SYPL1 (11715823_x_at) / Fold change /veh SYPL1 (11715823_x_at) / RFU IGFBP7 (11715501_s_at) / Fold change /veh IGFBP7 (11715501_s_at) / RFU REEP3 (11722064_at) / Fold change /veh REEP3 (11722064_at) / RFU IGLL1 (11728026_x_at) / Fold change /veh IGLL1 (11728026_x_at): dose or concentration left out as unconfirmed
Details: MV-4-11 cells, 48 hours

Nc1ncn([C@@H]2O[C@H](CO)[C@@H](O)[C@H]2O)c(=O)n1 [azacitidine]
Fold change /veh TMEM136 (11760407_x_at): 1.19
